Active and inactive are the calls of the source.
How the values were obtained:
[1] = Luminescence Cell-Based Dose Response HTS to Identify Inhibitors of 5'UTR Stem-Loop Driven Prion Protein mRNA Translation in H4 Neuroglioblastoma Cells. [Related pubchem assays: 1827 (Project Summary), 1813 (Primary HTS)]; assay type: functional
[2] = cells; assay type: functional, cell-based
[3] = biological target: T1, Nuclear receptor subfamily 0 group B member 1 (Homo sapiens, UniProt P51843); assay type: functional, cell-based;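 also: HEK293T cells transfected with SF-1 and DAX-1 plus StAR promoter luciferase reporter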
T1 sequence (P51843 whole entry): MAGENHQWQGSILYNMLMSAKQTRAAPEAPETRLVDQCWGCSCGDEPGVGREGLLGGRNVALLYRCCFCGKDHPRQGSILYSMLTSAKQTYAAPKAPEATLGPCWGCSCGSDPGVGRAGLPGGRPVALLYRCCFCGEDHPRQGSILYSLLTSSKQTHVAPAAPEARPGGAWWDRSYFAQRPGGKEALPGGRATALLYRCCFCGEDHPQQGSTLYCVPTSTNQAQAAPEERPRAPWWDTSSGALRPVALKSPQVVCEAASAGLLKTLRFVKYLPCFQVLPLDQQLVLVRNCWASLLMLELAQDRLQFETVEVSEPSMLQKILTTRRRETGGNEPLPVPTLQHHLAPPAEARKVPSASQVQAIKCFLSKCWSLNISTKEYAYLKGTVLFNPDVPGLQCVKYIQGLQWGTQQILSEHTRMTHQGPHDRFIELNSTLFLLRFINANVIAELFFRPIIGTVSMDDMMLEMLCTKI

[4] = LGR2 antagonists, dose response, cell-based, HEK293, CRE-luciferase reporter, cherry pick, set 2 (AID 743343); assay type: functional;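 also: transfected cells were stimulated with diluted bursicon conditioned medium after compound addition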
[5] = MC4R antagonists, dose response, counter-screen for LGR2 antagonist project, cell-based, plate reader, cherry pick (AID 743444); assay type: functional;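 also: transfected HEK 293 cells stimulated with alpha-MSH peptide; potency of inhibitors of the alpha-MSH evoked signal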
[6] = cytotoxicity in HEK-293T cells, dose response, cytotoxicity control for TCR NF-kB inhibitor project, luminescence, T-cell screen hits (AID 489026); assay type: functional, cell-based;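 also: cells exposed to compound about 14 hours before the viability readout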
[7] = test system: INS1; assay: beta cell apoptosis inhibitors, cytokine rescue, dose response, luminescence, retest (AID 449756); assay type: functional, cell-based; settings: Rattus norvegicus;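 also: cell death triggered by IL-1 beta plus TNF-alpha plus IFN-gamma mixture; protective hits raise ATP signal compared with cytokine alone wells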
[8] = biological target: Galanin receptor type 3 (Homo sapiens, UniProt O60755); assay: Fluorescence-based cell-based primary high throughput dose response assay to identify antagonists of the Galanin Receptor 3 (GalR3).; assay type: functional
[9] = cells; assay type: functional, cell-based; settings: HEK-CNG
[10] = biological target: Cytochrome P450 2D6 (Homo sapiens, UniProt P10635);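 also: CYP2D6 member of a cytochrome P450 panel assay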
[11] = biological target: Cytochrome P450 3A4 (Homo sapiens, UniProt P08684);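 also: CYP3A4 tested as one member of a cytochrome P450 panel screen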
[12] = THP-1 cell cytotoxicity, dose response, cytotoxicity control for non-replicating M. tuberculosis project (AID 489025); assay type: functional
[13] = HepG2 cell cytotoxicity, dose response, cytotoxicity control for non-replicating M. tuberculosis project (AID 489018); assay type: functional; settings: Mycobacterium tuberculosis
[14] = Vero E6 cell cytotoxicity, dose response, cytotoxicity control for non-replicating M. tuberculosis project, secondary assay (AID 492998); assay type: functional, VeroE6; settings: Vero C1008
[15] = cells; assay type: functional
[16] = HepG2 cell cytotoxicity, dose response, cytotoxicity control, ATP luminescence, cherry-pick, activator set 2 (AID 1053143); assay type: functional, cell-based
[17] = inhibitors of intracellular T. cruzi replication, confirmation, NIH3T3 host cells, beta-gal luminescence (AID 2044); assay type: functional, cell-based;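 also: intracellular parasites grown in NIH/3T3 mouse fibroblasts as host cells; luminescent beta-galactosidase reporter signal from transgenic T. cruzi replicating inside host cells; inhibitors lower the luminescence signal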
[18] = cytotoxicity toward NIH3T3 fibroblasts, dose response, counter-screen, cell-based, ATP luminescence, mouse fibroblasts (AID 2010); assay type: functional;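 also: cells exposed to compound for about 90 hours before reading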
[19] = biological target: SWI/SNF-related matrix-associated actin-dependent regulator of chromatin subfamily A member 2 (Homo sapiens, UniProt P51531); assay: Luminescence-based cell-based high throughput dose response assay to identify activators of the function of SWI/SNF related, matrix associated, actin dependent regulator of chromatin, subfamily a, member 2 (SMARCA2, BRM).; assay type: functional
[20] = Counterscreen for activators of the function of SWI/SNF related, matrix associated, actin dependent regulator of chromatin, subfamily a, member 2 (SMARCA2, BRM): Luminescence-based cell-based high throughput dose response assay to identify non-selective compounds using the VP16 reporter assay.; assay type: functional
[21] = biological target: Major prion protein (Homo sapiens, UniProt P04156); assay type: functional, cell-based
[22] = cells
[23] = HepG2 cell cytotoxicity, dose response, cytotoxicity control, plate reader, cherry-pick, antagonist series (AID 743416); assay type: functional, cell-based
[24] = HEK293 cell cytotoxicity, dose response, cytotoxicity control, plate reader, cherry-picked samples (AID 743446); assay type: functional, cell-based
[25] = Shn3 3'UTR reporter inhibitors, dose response, cell-based, Clone20 osteoblasts, firefly luciferase, cherry-picked (AID 624132); assay type: functional;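 also: firefly luciferase luminescence from reporter carrying the Shn3 3'UTR in osteoblasts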
[26] = HepG2 cell cytotoxicity, dose response, cytotoxicity control for Shn3 inhibitor project, CellTiter-Glo, cherry-picked (AID 624134); assay type: functional, cell-based
[27] = control 3'UTR Renilla luciferase suppression, dose response, counter-screen for Shn3 inhibitor project, cell-based, Clone20-Shn3RL, cherry-picked (AID 624133); assay type: functional
[28] = biological target: T2, Oxysterols receptor LXR-beta (Homo sapiens, UniProt P55055); assay type: functional, cell-based;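 also: agonist activity at LXR measured by a cell-based luminescence readout across a dose range, run as a counterscreen for daf-12 agonists; HEK293 cells with Gal4-LXR fusion and GAL4-driven luciferase reporter; potency for activation of Gal4-LXR reporter so compounds are agonists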
T2 sequence (P55055 whole entry): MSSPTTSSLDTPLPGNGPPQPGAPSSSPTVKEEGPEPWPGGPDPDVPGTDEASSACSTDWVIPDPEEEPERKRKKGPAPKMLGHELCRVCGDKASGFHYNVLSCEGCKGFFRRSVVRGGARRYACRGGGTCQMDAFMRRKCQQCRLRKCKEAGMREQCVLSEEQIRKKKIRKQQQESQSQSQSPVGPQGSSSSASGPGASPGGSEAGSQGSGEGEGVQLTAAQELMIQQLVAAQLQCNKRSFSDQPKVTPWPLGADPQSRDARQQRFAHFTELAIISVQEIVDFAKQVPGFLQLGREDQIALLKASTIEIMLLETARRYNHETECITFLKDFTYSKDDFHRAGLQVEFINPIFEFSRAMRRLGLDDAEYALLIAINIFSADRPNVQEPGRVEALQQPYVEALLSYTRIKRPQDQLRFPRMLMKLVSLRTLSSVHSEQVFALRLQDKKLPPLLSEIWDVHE

[29] = biological target: T3, Protein skinhead-1 (Caenorhabditis elegans, UniProt P34707); assay type: functional
T3 sequence (P34707 whole entry): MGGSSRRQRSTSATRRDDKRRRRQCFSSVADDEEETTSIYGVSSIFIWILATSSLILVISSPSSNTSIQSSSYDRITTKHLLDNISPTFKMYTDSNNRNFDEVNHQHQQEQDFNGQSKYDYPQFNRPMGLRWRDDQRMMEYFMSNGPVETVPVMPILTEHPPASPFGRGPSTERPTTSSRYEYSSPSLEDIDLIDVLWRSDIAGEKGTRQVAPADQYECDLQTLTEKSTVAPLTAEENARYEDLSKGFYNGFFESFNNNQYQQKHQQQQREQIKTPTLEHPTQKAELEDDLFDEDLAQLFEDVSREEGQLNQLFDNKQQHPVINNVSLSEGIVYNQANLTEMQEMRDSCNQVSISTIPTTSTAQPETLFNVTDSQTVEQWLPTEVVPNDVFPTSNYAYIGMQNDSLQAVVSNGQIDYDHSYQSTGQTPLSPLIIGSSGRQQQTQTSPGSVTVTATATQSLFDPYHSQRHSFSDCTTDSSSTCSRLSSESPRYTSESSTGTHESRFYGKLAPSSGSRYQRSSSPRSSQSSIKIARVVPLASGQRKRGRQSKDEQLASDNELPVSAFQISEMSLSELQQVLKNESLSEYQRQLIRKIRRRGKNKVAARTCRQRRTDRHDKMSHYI

[30] = biological target: Nuclear receptor subfamily 5 group A member 2 (Homo sapiens, UniProt O00482); assay type: functional, cell-based;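 also: HEK293T cells transfected with LRH-1 and a StAR promoter luciferase reporter; potency for inhibitors that lower LRH-1 driven reporter light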
[31] = biological target: Steroidogenic factor 1 (Homo sapiens, UniProt Q13285); assay: Counterscreen for inverse agonists of the liver receptor homolog-1 (LRH-1; NR5A2): Luminescence-based cell-based high throughput dose response assay to identify inverse agonists of the Steroidogenic Factor 1 Nuclear Receptor (SF1; NR5A1).; assay type: functional
[32] = StAR promoter reporter inhibition counter-screen, dose response, counter-screen for LRH-1 inverse agonist project, cell-based, luminescence, luciferase reporter (AID 651969); assay type: functional
[33] = biological target: fMet-Leu-Phe receptor (Homo sapiens, UniProt P21462); assay: FPR ligands, dose response (AID 519); assay type: functional
[34] = miR-122 activators in hepatoma reporter cells, dose response, cell-based, Huh7 psiCHECK-miR122, Renilla luciferase, cherry-picked (AID 651956); assay type: functional;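 also: huh7 hepatoma cells stably carrying a psiCHECK-2 miR-122 sensor plasmid; renilla luciferase signal reporting endogenous miR-122 activity after 48 h compound exposure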
[35] = HEK293T cytotoxicity, dose response, cytotoxicity control for miR-122 modulator project, cell-based, inhibitor set, cherry-pick, set 2 (AID 720697); assay type: functional
[36] = biological target: Paired box protein Pax-8 (Homo sapiens, UniProt Q06710); assay: inhibitors of PAX8-driven TPO luciferase reporter, dose response, RMG-I cells, cherry-pick (AID 687027); assay type: functional, cell-based;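 also: luciferase reporter driven by Pax8 target thyroperoxidase promoter measured by SteadyGlo luminescence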
[37] = non-specific cell cytotoxicity, dose response, cytotoxicity control for PAX8 inhibitor project, plate reader, dry powder samples (AID 743021); assay type: functional, cell-based
[38] = inhibitors of firefly luciferase expression or activity, dose response, H4 neuroglioma cells, luminescence (AID 1990); assay type: functional, cell-based
[39] = luciferase reporter signal reduction – luminescence, H4-C neuroglioblastoma cells, dose response (AID 2458); assay type: functional, cell-based;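 also: H4 neuroglioblastoma cells stably carrying a luciferase reporter gene fusion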
[40] = cells; assay type: functional, cell-based; remark: listed apart in the source
[41] = inhibitors of SNCA 5'UTR-driven reporter translation, confirmation, H4 neuroglioma cells, luminescence (AID 1988); assay type: functional, cell-based
[42] = inhibitors of SNCA 5'UTR-driven translation, confirmation, luminescence, H4 neuroglioblastoma cells, dose confirmation (AID 2454); assay type: functional, cell-based;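 also: H4 neuroglioblastoma cells carrying an alpha-synuclein 5'UTR luciferase reporter; potency for inhibition of the luciferase signal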
[43] = HeLa 2N DNA content increase, dose response, cell-based, IC50 (AID 1117349); assay type: functional
[44] = HeLa 4N DNA content increase, dose response, cell-based, IC50 (AID 1117351); assay type: functional

O=C(c1cc(-c2ccc(Cl)cc2Cl)on1)N1CCOCC1
EC50 [1]: > 120 µM (not active) | IC50 [2]: > 67.5 µM (inactive) | IC50 [3]: > 67.5 µM (inactive) | AC50 [4]: 7.17 µM (active) | AC50 [5]: 7.28 µM (active)

CCc1c(C)nc2ncnn2c1NCCc1ccc(OC)cc1
IC50 [6]: > 80 µM (inactive) | AC50 [7]: 5.39 µM (active) | IC50 [8]: 3.2 µM (active) | EC50 [9]: > 29.9 µM (inactive) | AC50 [10]: 12.6 µM (inconclusive) | AC50 [11]: 25.1 µM (inconclusive)

Cc1cc(NCc2ccccn2)n2ncc(-c3ccccc3)c2n1
CC50 [12]: 6.66 µM (active) | CC50 [13]: 4.11 µM (active) | CC50 [14]: 11.8 µM (active) | IC50 [15]: 1.4 µM (active) | AC50 [16]: 26 µM (active)

Cc1cc(NCCN2CCOCC2)c2ccc3ccccc3c2n1
EC50 [17]: 0.949 µM (active) | EC50 [18]: > 60 µM (not active) | EC50 [19]: 25.3 µM (inactive) | EC50 [20]: > 91.2 µM (inactive)

N=C(N)NS(=O)(=O)c1ccc(NC(=S)NC(=O)c2sc3ccccc3c2Cl)cc1
IC50 [21]: 5.54 µM (active) | IC50 [22]: > 138 µM (inactive)

c1ccc(-n2nnnc2Sc2ncnc3sc4c(c23)CCCC4)cc1
AC50 [23]: > 52 µM (inactive) | AC50 [4]: 5.02 µM (active) | AC50 [5]: 5.73 µM (active) | AC50 [24]: 42.3 µM (active)

Cn1nc(C(C)(C)C)cc1C(=O)NCc1ccc2c(c1)OCO2
AC50 [7]: 3.31 µM (active) | AC50 [25]: 1.17 µM (active) | AC50 [26]: 2.31 µM (active) | AC50 [27]: 1.02 µM (active) | IC50 [8]: 1.83 µM (active) | EC50 [9]: > 29.9 µM (inactive)

CCc1cc2c(=O)c(-c3ccc4c(c3)OCO4)coc2c(CN(C)C)c1O
IC50 [21]: 2.07 µM (active) | IC50 [22]: > 138 µM (inactive)

S=C(c1ccc(-c2ccc(Cl)cc2)o1)N1CCCCC1
EC50 [28]: > 67.5 µM (inactive)

Clc1ccc(Nc2ccc3ccccc3n2)cc1
IC50 [29]: > 100 µM (inactive) | EC50 [28]: > 67.5 µM (inactive)

CC1=CC(O)C(O)C2(C)C1CC1OC(=O)CC3C(C)C(O)C(=O)C2C13CO (stereo not drawn)
IC50 [30]: 6.91 µM (active) | IC50 [31]: 4.96 µM (active) | IC50 [32]: 17.7 µM (inactive)

CCOc1ccc(C2C(C(=O)c3cccs3)=C(O)C(=O)N2CCCn2ccnc2)cc1 (stereo not drawn)
Ki [33]: 57.1 µM (inactive)

COc1ccccc1CNc1nc(NCC2CC2)nc2ccsc12
AC50 [25]: 4.16 µM (active) | AC50 [26]: 39.9 µM (active) | AC50 [27]: 6.69 µM (active) | AC50 [34]: 29.6 µM (active) | AC50 [35]: 6.06 µM (active)

CC(C)C#Cc1ccc2c(c1)O[C@H](CN(C)C(=O)c1ccncc1)[C@@H](C)CN([C@@H](C)CO)S2(=O)=O
AC50 [34]: 11.6 µM (active) | AC50 [35]: 0.461 µM (active)

Cc1ccc(S(=O)(=O)N(C)C[C@H]2Oc3ccc(NS(=O)(=O)c4ccc(F)cc4)cc3CC(=O)N([C@H](C)CO)C[C@H]2C)cc1
AC50 [36]: 21.5 µM (active) | AC50 [37]: 52.8 µM (active)

O=C(Cc1ccc(-c2ccccc2)cc1)Nc1ccccn1 [DIFENPIRAMIDE]
EC50 [19]: > 91.2 µM (inactive) | EC50 [20]: > 91.2 µM (inactive)

COc1cc([C@@H]2c3cc4c(cc3[C@H](O)[C@H]3COC(=O)[C@H]23)OCO4)cc(OC)c1OC [PODOFILOX]
EC50 [38]: < 0.1 µM (active) | EC50 [39]: 0.015 µM (active) | EC50 [40]: 0.014 µM (active) | EC50 [41]: < 0.1 µM (active) | EC50 [42]: 0.008 µM (active) | IC50 [6]: > 80 µM (inactive) | IC50 [2]: > 67.5 µM (inactive) | IC50 [3]: 2.15 µM (active) | AC50 [36]: < 0.26 µM (active) | IC50 [43]: 0.0089 µM (active) | IC50 [44]: 0.0077 µM (active)

Reference: ChEMBL document CHEMBL1201862, “PubChem BioAssay data set” (2004)
